Our source for the IC50 and Selectivity values is ChEMBL document CHEMBL1138708, “Synthesis of analogs of (1,4)-3- and 5-imino oxazepane, thiazepane, and diazepane as inhibitors of nitric oxide synthases” (Bioorg Med Chem Lett, 2004).

A value given as a limit tells only on which side of the number the result lay.

The target of one experiment is T1, Nitric oxide synthase 3 (Homo sapiens, UniProt P29474).
T1 sequence (P29474 whole entry): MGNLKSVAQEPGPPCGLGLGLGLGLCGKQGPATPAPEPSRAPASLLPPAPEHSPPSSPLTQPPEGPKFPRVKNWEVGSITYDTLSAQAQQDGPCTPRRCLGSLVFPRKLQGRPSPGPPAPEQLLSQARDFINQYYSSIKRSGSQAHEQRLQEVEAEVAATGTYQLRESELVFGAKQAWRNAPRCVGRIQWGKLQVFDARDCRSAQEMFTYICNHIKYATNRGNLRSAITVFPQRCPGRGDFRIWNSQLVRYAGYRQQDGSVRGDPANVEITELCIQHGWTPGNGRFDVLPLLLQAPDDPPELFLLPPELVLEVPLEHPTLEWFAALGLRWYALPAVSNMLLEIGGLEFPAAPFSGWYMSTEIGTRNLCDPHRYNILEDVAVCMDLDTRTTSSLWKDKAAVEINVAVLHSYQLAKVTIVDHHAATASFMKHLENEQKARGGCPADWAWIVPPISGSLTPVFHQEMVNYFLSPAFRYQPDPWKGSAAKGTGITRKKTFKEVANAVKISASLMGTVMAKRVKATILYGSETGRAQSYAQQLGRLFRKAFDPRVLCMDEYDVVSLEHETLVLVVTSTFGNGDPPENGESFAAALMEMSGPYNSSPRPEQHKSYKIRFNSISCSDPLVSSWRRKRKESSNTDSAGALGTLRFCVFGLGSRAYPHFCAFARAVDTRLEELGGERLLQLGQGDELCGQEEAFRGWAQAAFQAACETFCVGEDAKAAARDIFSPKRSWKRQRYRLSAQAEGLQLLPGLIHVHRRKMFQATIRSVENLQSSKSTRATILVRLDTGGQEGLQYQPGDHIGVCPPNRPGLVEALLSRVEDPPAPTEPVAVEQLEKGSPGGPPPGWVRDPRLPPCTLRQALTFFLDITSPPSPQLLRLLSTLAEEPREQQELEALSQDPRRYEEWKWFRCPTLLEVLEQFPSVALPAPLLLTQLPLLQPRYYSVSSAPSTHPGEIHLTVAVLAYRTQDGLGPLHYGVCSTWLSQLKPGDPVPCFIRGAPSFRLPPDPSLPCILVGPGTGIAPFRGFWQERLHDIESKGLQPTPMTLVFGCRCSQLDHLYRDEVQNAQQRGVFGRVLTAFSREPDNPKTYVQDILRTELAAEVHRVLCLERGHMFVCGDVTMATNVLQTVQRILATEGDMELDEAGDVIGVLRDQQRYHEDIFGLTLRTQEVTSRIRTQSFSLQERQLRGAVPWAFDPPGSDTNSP
In words: Inhibitory concentration against Endothelial nitric oxide synthase.

The target in experiment [1] is Nitric oxide synthase (inducible and endothelial) (Homo sapiens) (UniProt P35228+P29474). In words: Ratio of inhibitory concentration against Endothelial nitric oxide synthase to Inducible nitric oxide synthase. It is filed as protein assay.
Another experiment concerns the target Nitric oxide synthase 1 (Homo sapiens, UniProt P29475). The experiment can be described thus: Inhibitory concentration against Neuronal nitric oxide synthase.
For experiment [2], the target named is Nitric oxide synthase, inducible (Homo sapiens, UniProt P35228). The experiment can be described thus: Inhibitory concentration against Inducible nitric oxide synthase.
Sequence of Nitric oxide synthase, inducible (P35228 whole entry): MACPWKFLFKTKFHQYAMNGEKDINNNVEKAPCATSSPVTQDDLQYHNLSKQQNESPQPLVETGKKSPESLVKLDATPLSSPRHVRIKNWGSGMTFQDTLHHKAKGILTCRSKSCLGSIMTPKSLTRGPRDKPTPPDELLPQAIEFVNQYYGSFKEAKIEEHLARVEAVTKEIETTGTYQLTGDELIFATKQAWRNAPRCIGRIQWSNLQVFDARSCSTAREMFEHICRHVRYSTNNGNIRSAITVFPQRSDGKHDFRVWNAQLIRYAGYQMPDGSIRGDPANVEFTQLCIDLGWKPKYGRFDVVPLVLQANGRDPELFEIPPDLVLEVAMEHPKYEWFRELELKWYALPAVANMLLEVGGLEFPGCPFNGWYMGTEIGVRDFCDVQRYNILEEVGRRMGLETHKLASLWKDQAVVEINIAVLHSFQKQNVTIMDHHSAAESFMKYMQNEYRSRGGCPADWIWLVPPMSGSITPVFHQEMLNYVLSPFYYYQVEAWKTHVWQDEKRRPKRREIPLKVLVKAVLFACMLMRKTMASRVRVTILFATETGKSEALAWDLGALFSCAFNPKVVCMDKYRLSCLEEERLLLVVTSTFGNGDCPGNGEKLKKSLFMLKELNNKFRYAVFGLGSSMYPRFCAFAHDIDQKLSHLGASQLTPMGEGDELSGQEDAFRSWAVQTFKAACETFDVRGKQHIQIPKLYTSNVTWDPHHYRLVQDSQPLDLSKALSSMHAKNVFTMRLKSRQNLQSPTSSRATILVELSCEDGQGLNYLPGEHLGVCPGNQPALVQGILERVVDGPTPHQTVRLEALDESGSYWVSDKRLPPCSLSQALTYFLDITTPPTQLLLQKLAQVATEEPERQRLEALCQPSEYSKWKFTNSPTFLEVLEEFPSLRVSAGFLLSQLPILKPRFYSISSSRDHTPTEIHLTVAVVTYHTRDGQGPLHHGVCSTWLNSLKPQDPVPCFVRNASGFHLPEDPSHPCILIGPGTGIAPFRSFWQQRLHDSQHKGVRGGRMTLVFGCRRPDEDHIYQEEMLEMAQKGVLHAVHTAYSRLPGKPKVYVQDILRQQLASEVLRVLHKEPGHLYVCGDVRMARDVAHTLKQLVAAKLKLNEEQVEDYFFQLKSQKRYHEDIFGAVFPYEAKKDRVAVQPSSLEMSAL

Sequence of Nitric oxide synthase 1 (P29475 whole entry): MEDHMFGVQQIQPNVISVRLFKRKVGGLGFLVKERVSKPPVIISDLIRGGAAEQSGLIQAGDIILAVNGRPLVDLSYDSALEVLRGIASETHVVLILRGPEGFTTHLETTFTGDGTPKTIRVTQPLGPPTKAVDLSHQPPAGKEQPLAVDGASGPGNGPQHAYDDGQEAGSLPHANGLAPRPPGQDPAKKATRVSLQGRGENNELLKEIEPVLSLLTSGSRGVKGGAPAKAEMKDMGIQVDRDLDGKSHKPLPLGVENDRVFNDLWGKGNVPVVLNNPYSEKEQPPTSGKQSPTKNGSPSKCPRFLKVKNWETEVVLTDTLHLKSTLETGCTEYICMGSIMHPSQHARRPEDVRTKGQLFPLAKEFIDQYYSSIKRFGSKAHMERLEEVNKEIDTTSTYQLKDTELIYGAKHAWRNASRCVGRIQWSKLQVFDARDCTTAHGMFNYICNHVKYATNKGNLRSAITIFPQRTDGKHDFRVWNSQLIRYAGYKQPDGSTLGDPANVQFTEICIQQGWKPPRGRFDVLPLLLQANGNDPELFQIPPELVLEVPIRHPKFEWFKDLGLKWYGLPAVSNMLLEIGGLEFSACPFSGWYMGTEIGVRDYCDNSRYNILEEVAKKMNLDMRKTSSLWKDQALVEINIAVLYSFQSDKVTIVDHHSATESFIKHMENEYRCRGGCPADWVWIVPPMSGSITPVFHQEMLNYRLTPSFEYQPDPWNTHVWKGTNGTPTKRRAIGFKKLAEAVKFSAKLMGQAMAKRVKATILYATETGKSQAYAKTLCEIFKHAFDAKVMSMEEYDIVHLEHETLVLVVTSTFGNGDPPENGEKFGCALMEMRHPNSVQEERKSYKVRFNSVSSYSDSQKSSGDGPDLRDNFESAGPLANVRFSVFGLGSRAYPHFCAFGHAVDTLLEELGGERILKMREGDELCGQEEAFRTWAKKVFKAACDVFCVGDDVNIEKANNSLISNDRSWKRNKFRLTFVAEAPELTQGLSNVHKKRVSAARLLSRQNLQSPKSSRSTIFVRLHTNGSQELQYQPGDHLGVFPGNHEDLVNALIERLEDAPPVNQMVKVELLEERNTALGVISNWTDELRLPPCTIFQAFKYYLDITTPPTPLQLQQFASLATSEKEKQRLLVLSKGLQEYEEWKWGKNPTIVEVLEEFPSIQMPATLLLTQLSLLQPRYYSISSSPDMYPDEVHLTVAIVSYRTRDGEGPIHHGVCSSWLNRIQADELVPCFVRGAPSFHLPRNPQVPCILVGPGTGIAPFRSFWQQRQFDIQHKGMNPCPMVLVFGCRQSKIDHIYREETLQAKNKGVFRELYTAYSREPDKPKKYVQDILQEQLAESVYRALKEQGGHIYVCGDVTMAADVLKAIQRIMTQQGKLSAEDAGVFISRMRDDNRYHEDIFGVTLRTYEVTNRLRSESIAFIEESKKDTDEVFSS

With `NC1=NCCOCC1`, the 50% inhibitory concentration (IC50) (in general, the concentration that gives 50% inhibition) against Nitric oxide synthase 3 amounted to 25000 nM; on Nitric oxide synthase 1, 8700 nM; in experiment [2], 11800 nM. Further, the Selectivity in experiment [1] was 2.1.
On to `CC1CSCCN=C1N` (stereo not drawn), for which the IC50 (on Nitric oxide synthase 3; against Nitric oxide synthase 1; in experiment [2]) was above 50000 nM in each case.
For the molecule `NC1=NCCSCC1`, the IC50 on Nitric oxide synthase 3 turned out to be 13400 nM; at Nitric oxide synthase 1 it was 4300 nM; in experiment [2], 1400 nM. In addition, in experiment [1], the Selectivity was 9.5.
On the same counts, the results for `CCC[C@H]1CSCCC(N)=N1` are 1000 nM, 440 nM, 190 nM and 5.2.
Take `CC1CN=C(N)CCS1` (stereo not drawn): the IC50 worked out at 4100 nM at Nitric oxide synthase 3, 830 nM on Nitric oxide synthase 1 and 3500 nM in experiment [2]. In addition, the Selectivity in experiment [1] was found to be 1.1.
`CC1CC(N)=NCCS1` (stereo not drawn): the half-inhibitory concentration (IC50) was found to be 5000 nM at Nitric oxide synthase 3, 1000 nM on Nitric oxide synthase 1 and 3000 nM in experiment [2]. Also, the Selectivity in experiment [1] was determined as 1.6.
As to `NC1=NC(CO)CSCC1` (stereo not drawn), the IC50 at Nitric oxide synthase 3 worked out at 6000 nM; on Nitric oxide synthase 1 it was 2700 nM; in experiment [2], 1100 nM. In addition, the Selectivity in experiment [1] stood at 5.3.
The matching figures for `CC1CSCCC(N)=N1` (stereo not drawn): 5000 nM, 1800 nM, 810 nM and 6.1.
Take `NC1=NCCCSC1`: the IC50 against Nitric oxide synthase 3 was 10500 nM; against Nitric oxide synthase 1, 2800 nM; in experiment [2], 1200 nM. The Selectivity in experiment [1] was 8.8.
The matching figures for `CCCC1CSCCC(N)=N1` (stereo not drawn): 50000 nM, 2800 nM, 290 nM and 172.
`CCCCC1CSCCC(N)=N1` (stereo not drawn): the values for the IC50 (against Nitric oxide synthase 3; against Nitric oxide synthase 1; in experiment [2]) were 77000 nM, 1200 nM and 500 nM, respectively. For the same molecule, the Selectivity in experiment [1] came to 164.
For `NC1=NCCNCC1`, the 50% inhibitory concentration (IC50) (against Nitric oxide synthase 3; on Nitric oxide synthase 1; in experiment [2]) was above 50000 nM in each case.
In turn, `NC1=NCCCOC1` gave an IC50 against Nitric oxide synthase 3 of 450 nM.
Turning to `CC(=N)NCCCC[C@H](N)C(=O)O`, in experiment [1], the Selectivity turned out to be 3.7.
In the case of `CCC[C@@H]1CSCCC(=N)N1`, the IC50 against Nitric oxide synthase 3 amounted to 50000 nM; on Nitric oxide synthase 1, 7100 nM; in experiment [2] it was 1200 nM.
The matching figures for `CC1CC(N)=NC2CCCCC2S1` (stereo not drawn): above 50000 nM, above 50000 nM and above 50000 nM.
In the case of `CCC1CSCCC(N)=N1` (stereo not drawn), the IC50 at Nitric oxide synthase 3 is 1100 nM; against Nitric oxide synthase 1, 590 nM; in experiment [2], 310 nM. Moreover, the Selectivity in experiment [1] is 3.7.
Take `CCC[C@@H]1CSCCC(N)=N1`: the Selectivity in experiment [1] amounted to 42.
With `CC(C)CC1CSCCC(N)=N1` (stereo not drawn), the IC50 was 60000 nM on Nitric oxide synthase 3, 1900 nM on Nitric oxide synthase 1 and 320 nM in experiment [2]. In experiment [1], the Selectivity came to 186.
